Eleven molecules from US8778973B2, “Alkene oxindole derivatives” (Hoffmann-La Roche Inc., priority 2009, dated 2014) can be followed below.

For the test, the system named is Recombinant human AMPK proteins (α1β1γ1, α2β1γ1, α1(1-335), α1(1-394) or α2(1-394)). Description: Scintillation Proximity Assay (SPA) of AMPK activation. Particulars: activator concentration for 50% of maximal enzyme activity; 50 nM recombinant AMPK, 2 μM ATP, 30° C., 2 hr. In kind it is biochemical. The procedure, abridged:
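Recombinant human AMPK (α1β1γ1, α2β1γ1 or α-subunit truncations), fully pre-phosphorylated, was used at 50 nM with 2 μM biotin-SAMS, 2 μM ATP plus [γ-^33P]ATP in Tris-HCl pH 7.5, MgCl2, DTT, 2 hr at 30° C. Product was captured on streptavidin SPA beads. EC50 was the activator concentration giving 50% of maximal activity.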
(In general: SPA uses beads or plates that emit light when radiolabelled molecules are held near them.)

Usually EC50 stands for the concentration giving half of the maximal effect.

As to `CC(C)CC/C(=C1/C(=O)N(Cc2cccc(C(=O)O)c2)c2ccccc21)c1ccccc1` [Example 81, 3-[3-(4-Methyl-1-phenyl-pent-(Z)-ylidene)-2-oxo-2,3-dihydro-indol-1-ylmethyl]-benzoic acid], the concentration giving a half-maximal response (EC50) worked out at 4.74 µM.

`CC(C)/C(Cc1ccc(Cl)cc1)=C1\C(=O)N(Cc2cccc(C(=O)O)c2)c2ccccc21` [Example 82, 3-{3-[1-(4-Chloro-benzyl)-2-methyl-prop-(Z)-ylidene]-2-oxo-2,3-dihydro-indol-1-ylmethyl}-benzoic acid]: the EC50 worked out at 1.6 µM.

For `COC(=O)c1cccc(CN2C(=O)/C(=C(/c3ccccc3)C(C)C)c3ccccc32)c1` [Example 85, 3-{3-[2-Methyl-1-phenyl-prop-(E)-ylidene]-2-oxo-2,3-dihydro-indol-1-ylmethyl}-benzoic acid methyl ester], the EC50 worked out at 4.9 µM.

`COC(=O)c1cccc(CN2C(=O)/C(=C(/c3ccc(C(C)=O)cc3)C(C)C)c3ccccc32)c1` [Example 86, 3-{3-[1-(4-Acetyl-phenyl)-2-methyl-prop-(E)-ylidene]-2-oxo-2,3-dihydro-indol-1-ylmethyl}-benzoic acid methyl ester]: the EC50 was 7.88 µM.

With `COC(=O)c1cccc(CN2C(=O)/C(=C(/c3ccc(Cl)cc3)C3CCCCC3)c3ccccc32)c1` [Example 87, 3-{3-[1-(4-Chloro-phenyl)-1-cyclohexyl-meth-(E)-ylidene]-2-oxo-2,3-dihydro-indol-1-ylmethyl}-benzoic acid methyl ester], the EC50 was found to be 10.7 µM.

Regarding `COC(=O)c1cccc(CN2C(=O)/C(=C(/c3ccc(C(F)(F)F)cc3)C(C)C)c3ccccc32)c1` [Example 88, 3-{3-[2-Methyl-1-(4-trifluoromethyl-phenyl)-prop-(E)-ylidene]-2-oxo-2,3-dihydro-indol-1-ylmethyl}-benzoic acid methyl ester], the EC50 was determined as 2.59 µM.

As for `O=C(O)c1cccc(CN2C(=O)/C(=C(/c3ccc(Cl)cc3)C3CCCCC3)c3ccccc32)c1` [Example 104, 3-{3-[1-(4-Chloro-phenyl)-1-cyclohexyl-meth-(E)-ylidene]-2-oxo-2,3-dihydro-indol-1-ylmethyl}-benzoic acid], the EC50 was 4.63 µM.

For `CC(C)/C(=C1\C(=O)N(Cc2cccc(C(=O)O)c2)c2ccccc21)c1ccc(C(F)(F)F)cc1` [Example 105, 3-{3-[2-Methyl-1-(4-trifluoromethyl-phenyl)-prop-(E)-ylidene]-2-oxo-2,3-dihydro-indol-1-ylmethyl}-benzoic acid], the concentration for a half-maximal effect (EC50) came out at 2.95 µM.

On to `CC(C)/C(=C1\C(=O)N(Cc2cccc(C(=O)O)c2)c2ccccc21)c1ccsc1` [Example 106, 3-{3-[2-Methyl-1-thiophen-3-yl-prop-(E)-ylidene]-2-oxo-2,3-dihydro-indol-1-ylmethyl}-benzoic acid], for which the EC50 came to 1.61 µM.

For `CC(C)/C(=C1\C(=O)N(Cc2cccc(C(=O)O)c2)c2ccc(Cl)cc21)c1ccc(C(F)(F)F)cc1` [Example 107, 3-{5-Chloro-3-[2-methyl-1-(4-trifluoromethyl-phenyl)-prop-(E)-ylidene]-2-oxo-2,3-dihydro-indol-1-ylmethyl}-benzoic acid], the half-maximal effective concentration (EC50) came out at 0.66 µM.

Take `CC(=O)c1ccc(/C(=C2/C(=O)N(Cc3cccc(C(=O)O)c3)c3ccccc32)C(C)C)cc1` [Example 108, 3-{3-[1-(4-Acetyl-phenyl)-2-methyl-prop-(E)-ylidene]-2-oxo-2,3-dihydro-indol-1-ylmethyl}-benzoic acid]: the EC50 was 3.25 µM.
